Measured values as given in PMC11601558, “SLC6A19 inhibition facilitates urinary neutral amino acid excretion and lowers plasma phenylalanine” (JCI Insight, 2024).
“And” between values parts separate entries of the source, which are not always exact repeats. Equal entries are not always repeated. Where two headings read alike, the source gives them in different places. Values belong to the compound of their own block, whether it stands above or below them.

What was measured:
[1] = JN-170 plasma pharmacokinetics in Pah^enu2 mice, single oral dose; format: in vivo, mouse; set-up: JN-170 plasma level (Fig 3a) / JN-170 plasma concentration: unit not given here; conditions: for JN-170 plasma level (Fig 3a) / concentration at 8 h / concentration at 1 h / concentration at 3 h: individual Pah^enu2 mice; for JN-170 plasma concentration: Fig S3a, Pahenu2 mice, individual animals; for concentration at 8 h / concentration at 1 h / concentration at 3 h: male, BTBR-Pah<enu2>/J (Pah^enu2), mouse, plasma, oral, read-out: JN-170 plasma level (Fig 3a)
Protocol: Male homozygous BTBR-Pah<enu2>/J (Pah^enu2) aged 10–13 weeks were purchased from Jackson Laboratory (no. 002232). Immediately before dosing, each animal’s bladder was manually emptied and a plasma sample was drawn. Animals were dosed by oral gavage with vehicle (10% DMSO, 20% 2-hydroxypropyl-β-cyclodextrin [Sigma-Aldrich]) followed by a 1-week washout prior to dosing with JN-170 at doses ranging from 50 to 250 mg/kg. Following dosing with vehicle or JN-170, animals were individually placed in metabolic cages to collect urine samples. After collection of each urine sample, cages were rinsed with ultra-pure water to recover residual analytes. Blood samples were collected predose as well as 1, 3, 8, 12, and 24 hours after dosing with vehicle or JN-170 into tubes with EDTA as a […], and plasma was separated by centrifuging samples at 2,200g for 5 minutes at 4°C. Throughout the study, mice had access to food and water ad libitum. Plasma and urine samples were stored at –80°C until processing.Ten-week-old male WT C57Bl/6J animals (Si Bei Fu Laboratory Animal Technology Co. Ltd.) were dosed either with vehicle or 50–250 mg/kg JN-170 by oral gavage and blood and urine samples were collected as described. All animals had unrestricted access to food and water during the study; C57Bl/6J were kept on rodent maintenance diet from Beijing Keao Xieli, Pah^enu2 mice were kept on Teklad diet no. T.2018.
Plasma sample analyses were carried out by liquid chromatography tandem mass spectrometry (LC-MS/MS). Plasma samples were mixed 1:1 with carbamazepine or ^13C6-Phe as internal standards for JN-170 and Phe, respectively. Plasma proteins were precipitated by adding 4 volumes of acetonitrile (ACN) and 0.1% formic acid (FA) followed by centrifugation for 5 minutes at 2,100g. Supernatants were diluted 1:1 in ACN and 0.1% FA. For JN-170, a Waters HSS T3 reversed phase column was used for separation using a binary gradient of 0.1% FA in water (mobile phase A) to 0.1% in ACN (mobile phase B). At a flow rate of 0.8 mL/min, the mobile phase gradient increased from an initial 25% phase B to 95% phase B over 30 seconds. After, 1.5 minutes, the gradient was returned to 25% mobile phase B. For detection of Phe, an Acquity UPLC ethylene bridged hybrid (BEH) amide column was used, with a binary gradient of 10 mM ammonium acetate in 95:5:1 H2O:ACN:FA (mobile phase A) to 10 mM ammonium acetate in 95:5:1 ACN:H2O:FA (mobile phase B). At a flow rate of 0.5 mL/min, the mobile phase gradient changed from an initial 100% phase B to 50% phase B over 2.1 minutes. It was returned to 100% phase B after 4 minutes. Analytes were detected using a Sciex API-5500 in multiple reaction monitoring mode using an electrospray ionization source in the positive ion mode with the following ion transitions: m/z 435.2/84.1 (JN-170), 237.1/194.1 (carbamazepine), 166.1/120.1 (Phe), 172.2/126.2 for (^13C6-Phe). Analyte concentrations were calculated with a 1/×^2 linear regression over a concentration range of 1 or 2 to 5,000 ng/mL for JN-170 and 0.05–100 ng/mL for Phe.

healthy volunteers = assay: Urine amino acid excretion in healthy volunteers (pharmacodynamics); format: in vivo, human
Protocol: The effect of JNT-517 on plasma and urine AA levels was measured using an ultra-performance liquid chromatography mass spectrometry assay following 6-aminoquinolyl-N-hydroxysuccinimidyl carbamate (AQC) derivatization. For the SAD study, plasma samples were collected on day –1 and day 1 predose, as well as 24, 48, and 72 hours after dosing. A first morning void urine sample on Days –1 and 1 predose, as well as 2 pooled urine samples 0–8 hours after and 8–24 hours after dose were also collected following study drug administration. For the MAD study, plasma samples were collected on day –1, 1, 7, and 14 predose, as well as day 14, 24 hours after dosing. A first morning void urine samples on day –1, 1, 7, and 14 as well as 2 pooled urine samples 0–8 hours and 8–24 hours after dose on days 1, 7, and 14 were also collected following JNT-517 or placebo administration. Study participants in SAD and MAD cohorts were dosed in the morning following an overnight fast of at least 8 hours and were provided the following meals in relation to dosing times: breakfast after the morning dose, lunch 4 hours after morning dose, optional snack in the afternoon 8 hours after the morning dose and after the second dose for MAD cohorts dosed BID, dinner approximately 10 hours after the morning dose and at least 2 hours after the second dose for MAD cohorts dosed BID. Predose plasma amino acids were drawn after a minimum of 8 hours fasting overnight and after-dose levels were drawn after > 1.5 hours fasting. Resulting plasma and urine amino acid concentration measurements, as well a total amino acid excretion over a time period were summarized using appropriate descriptive statistics and compared with either predose levels or placebo-dose values. Tryptophan was not included in the amino acid panel due to analytical limitations.
IC50 values for transport inhibition in cells overexpressing SLC6A19 and TMEM27 were calculated using a 4-parameter logistic regression in Collaborative Drug Discovery (CDD). Reported IC50 values are geometric means of 4–6 independent experiments. For postmortem intestinal transport assays, single outliers of quadruplicate replicates were excluded from the calculation if a signal value’s distance to the mean exceeded 35% of the signal average. The IC50 values of individual experiments were calculated with a 3- or 4-parameter logistic regression using GraphPad Prism 9. The reported IC50 value represents the geometric mean of n = 5 experiments from 3 individual donors. Statistical comparison of urinary Phe excretion in Pah^enu2 mice treated with vehicle or JN-170 was conducted using 1-way analysis of variance (ANOVA) with Tukey’s post hoc comparison. Statistical analysis of baseline-adjusted plasma Phe in mice treated with vehicle or JN-170 was determined by 2-way ANOVA with Dunnett’s post hoc comparison. All statistical analyses were performed using GraphPad Prism 9. For clinical studies, group sizes were not determined based on statistical power calculations. Statistical significance of pharmacodynamic results was not assessed. Values are reported as mean (urinary Phe excretion, T1/2, Cl/F), geometric mean (Cmax/D, AUC0-inf/D), or median (Tmax).

coverage above the in vitro IC75 ([1]; 50 mg/kg): approximately 3 hours
JN-170 plasma level (Fig 3a) ([1]; 50 mg/kg oral, 24 h): 8.45 and 26.4 and 9.59 and 19.9
JN-170 plasma level (Fig 3a) ([1]; 250 mg/kg oral, 1 h): 16600 (2×) and 17000 and 16300 and 17600
JN-170 plasma level (Fig 3a) ([1]; 250 mg/kg oral, 24 h): 125 and 63 and 72.6
concentration at 8 h ([1]; 50 mg/kg, 50 mg/kg oral): 456 ng/mL
concentration at 1 h ([1]; 100 mg/kg, 100 mg/kg oral, 1 h): 5780 ng/mL
concentration at 3 h ([1]; 100 mg/kg, 100 mg/kg oral): 4240 ng/mL
concentration at 8 h ([1]; 100 mg/kg, 100 mg/kg oral): 2280 ng/mL
concentration at 1 h ([1]; 200 mg/kg, 200 mg/kg oral, 1 h): 8750 ng/mL
concentration at 3 h ([1]; 200 mg/kg, 200 mg/kg oral): 8710 ng/mL
concentration at 8 h ([1]; 200 mg/kg, 200 mg/kg oral): 8610 ng/mL
concentration at 1 h ([1]; 250 mg/kg, 250 mg/kg oral, 1 h): 18300 ng/mL
concentration at 3 h ([1]; 250 mg/kg, 250 mg/kg oral): 14800 ng/mL
concentration at 8 h ([1]; 250 mg/kg, 250 mg/kg oral): 11200 ng/mL
SMILES: N#Cc1ccc(-c2noc([C@]3(C(F)(F)F)CCN(C(=O)NCCC4(N)CC4)C3)n2)cc1 [JN-170]
JN-170 plasma concentration ([1]; time 1 h): 10400 and 12200 and 13800 and 8750 and 11500 and 12500
JN-170 plasma concentration ([1]; time 3 h): 8500 and 9610 and 10900 and 8710 and 9900 and 11900
JN-170 plasma concentration ([1]; time 8 h): 11000 and 6710 and 8280 and 8610 and 8480 and 9150
JN-170 plasma concentration ([1]; time 12 h): 7430 and 5630 and 5750 and 12700 and 9060 and 6600
JN-170 plasma concentration ([1]; time 24 h): 33.1 and 16 and 26.9 and 82.7 and 103 and 19.9

SMILES: NC(=O)N1CCC[C@@H](N(C(=O)NCc2ccc(OC(F)(F)F)cc2F)C2CC2)C1 [JNT-517]
24 hour Phe excretion, mean ± SD (healthy volunteers; MAD day 14, 75 mg BID): 89 ± 34 mg
Phe excreted from 0–8 hours, mean ± SD (healthy volunteers; MAD day 14, 75 mg BID): 32 ± 20 mg
urine Phe excreted from 8–24 hours, mean ± SD (healthy volunteers; MAD day 14, 75 mg BID): 56 ± 19 mg
24 hour Phe excretion, mean ± SD (healthy volunteers; MAD day 14, 150 mg QD): 72 ± 18 mg
Phe excreted from 0–8 hours, mean ± SD (healthy volunteers; MAD day 14, 150 mg QD): 53 ± 16 mg
urine Phe excreted from 8–24 hours, mean ± SD (healthy volunteers; MAD day 14, 150 mg QD): 20 ± 11 mg
Phe excreted in urine over a 24 hour period, mean ± SD (healthy volunteers; SAD 170 mg): 142 ± 30 mg
increase in 24 hour urinary Phe vs placebo (healthy volunteers; SAD 170 mg): approximately 14 fold
glutamine excreted in urine, mean ± SD (healthy volunteers; SAD 170 mg, Supplemental Figure 6): 1,904 ± 541 mg
